Results: ChEMBL document CHEMBL1156855, “Identification of potent and selective VEGFR receptor tyrosine kinase inhibitors having new amide isostere headgroups” (Bioorg Med Chem Lett, 2010)
Blank lines part the entries; values can stand above or below the compound they belong to. Activity calls are given as the source filed them. The rule behind the calls is not given here.

Experiments:
[1] = molecular target: Vascular endothelial growth factor receptor 2 (Homo sapiens, UniProt P35968); experiment: Inhibition of recombinant GST-fused VEGFR2 expressed in baculovirus infected Sf9 cells by DELFIA
[2] = molecular target: T1, Hepatocyte growth factor receptor (Homo sapiens, UniProt P08581); experiment: Inhibition of recombinant GST-fused c-Met expressed in baculovirus infected high five cells by DELFIA
[3] = molecular target: Receptor-type tyrosine-protein kinase FLT3 (Homo sapiens) (UniProt P36888); experiment: Inhibition of human Flt3
[4] = molecular target: Angiopoietin-1 receptor (Homo sapiens) (UniProt Q02763); experiment: Inhibition of human Tie2
[5] = molecular target: Macrophage-stimulating protein receptor (Homo sapiens) (UniProt Q04912); experiment: Inhibition of human RON
HUVEC [6] = experiment: Antiangiogenic activity in HUVEC assessed as inhibition of VEGF-induced tubule branching at 100 nM; format: functional; conditions: Homo sapiens
[7] = molecular target: Aurora kinase A (Homo sapiens) (UniProt O14965); experiment: Inhibition of human Aurora A
HUVEC [8] = experiment: Inhibition of VEGF-induced HUVEC proliferation; format: functional, cell-based; conditions: Homo sapiens
HUVEC [9] = experiment: Antiangiogenic activity in HUVEC assessed as inhibition of VEGF-induced tubule growth at 100 nM; format: functional; conditions: Homo sapiens
HUVEC [10] = experiment: Antiangiogenic activity in HUVEC assessed as inhibition of tubule branching; format: functional, cell-based; conditions: Homo sapiens
HUVEC [11] = experiment: Antiangiogenic activity in HUVEC assessed as inhibition of tubule length; format: functional, cell-based; conditions: Homo sapiens
[12] = molecular target: Vascular endothelial growth factor receptor 1 (Homo sapiens) (UniProt P17948); experiment: Inhibition of human VEGFR1
[13] = molecular target: T1, Hepatocyte growth factor receptor; experiment: Inhibition of human c-MET
[14] = molecular target: Vascular endothelial growth factor receptor 3 (Homo sapiens) (UniProt P35916); experiment: Inhibition of human VEGFR3
[15] = molecular target: T1, Hepatocyte growth factor receptor; experiment: Inhibition of TPR-fused Met autophosphorylation expressed in HEK293T cells after 150 mins by ELISA; format: cell-based; conditions: hek-293t
[16] = molecular target: Glycogen synthase kinase-3 beta (Homo sapiens) (UniProt P49841); conditions: 0.1 uM
Description: Inhibition of human GSK3-beta at 0.1 uM

[17] = molecular target: T1, Hepatocyte growth factor receptor; conditions: 0.1 uM
Description: Inhibition of human c-MET at 0.1 uM

[18] = molecular target: High affinity nerve growth factor receptor (Homo sapiens) (UniProt P04629); conditions: 0.1 uM
Description: Inhibition of human TrkA at 0.1 uM

[19] = molecular target: Serine/threonine-protein kinase haspin (Homo sapiens) (UniProt Q8TF76); conditions: 0.1 uM
Description: Inhibition of human haspin at 0.1 uM

[20] = molecular target: RAF proto-oncogene serine/threonine-protein kinase (Homo sapiens) (UniProt P04049); conditions: 0.1 uM
Description: Inhibition of human c-Raf at 0.1 uM

[21] = molecular target: RAC-alpha serine/threonine-protein kinase (Homo sapiens) (UniProt P31749); conditions: 0.1 uM
Description: Inhibition of human PKBalpha at 0.1 uM

[22] = molecular target: Serine/threonine-protein kinase pim-1 (Homo sapiens) (UniProt P11309); conditions: 0.1 uM
Description: Inhibition of human Pim1 at 0.1 uM

[23] = molecular target: Tyrosine-protein kinase JAK2 (Homo sapiens) (UniProt O60674); conditions: 0.1 uM
Description: Inhibition of human JAK2 at 0.1 uM

[24] = molecular target: Serine/threonine-protein kinase Chk1 (Homo sapiens) (UniProt O14757); conditions: 0.1 uM
Description: Inhibition of human CHK1 at 0.1 uM

[25] = molecular target: Receptor-type tyrosine-protein kinase FLT3 (Homo sapiens) (UniProt P36888); conditions: 0.1 uM
Description: Inhibition of human Flt3 at 0.1 uM

[26] = molecular target: Inhibitor of nuclear factor kappa-B kinase subunit beta (Homo sapiens) (UniProt O14920); conditions: 0.1 uM
Description: Inhibition of human IKK-beta at 0.1 uM

[27] = molecular target: Cytoplasmic tyrosine-protein kinase BMX (Homo sapiens) (UniProt P51813); conditions: 0.1 uM
Description: Inhibition of human Bmx at 0.1 uM

[28] = molecular target: Macrophage-stimulating protein receptor (Homo sapiens) (UniProt Q04912); conditions: 0.1 uM
Description: Inhibition of human RON at 0.1 uM

[29] = molecular target: 3-phosphoinositide-dependent protein kinase 1 (Homo sapiens) (UniProt O15530); conditions: 0.1 uM
Description: Inhibition of human PDK1 at 0.1 uM

[30] = molecular target: Focal adhesion kinase 1 (Homo sapiens) (UniProt Q05397); conditions: 0.1 uM
Description: Inhibition of human FAK at 0.1 uM

[31] = molecular target: Mast/stem cell growth factor receptor Kit (Homo sapiens) (UniProt P10721); conditions: 0.1 uM
Description: Inhibition of human c-Kit at 0.1 uM

[32] = molecular target: Tyrosine-protein kinase JAK3 (Homo sapiens) (UniProt P52333); conditions: 0.1 uM
Description: Inhibition of human JAK3 at 0.1 uM

[33] = molecular target: Vascular endothelial growth factor receptor 1 (Homo sapiens) (UniProt P17948); experiment: Inhibition of human VEGFR1 at 0.1 uM
[34] = molecular target: ALK tyrosine kinase receptor (Homo sapiens) (UniProt Q9UM73); conditions: 0.1 uM
Description: Inhibition of human ALK at 0.1 uM

[35] = molecular target: Phosphatidylinositol 4,5-bisphosphate 3-kinase catalytic subunit beta isoform (Homo sapiens) (UniProt P42338); conditions: 0.1 uM
Description: Inhibition of human PI3Kbeta at 0.1 uM

[36] = molecular target: Dual specificity mitogen-activated protein kinase kinase 1 (Homo sapiens) (UniProt Q02750); conditions: 0.1 uM
Description: Inhibition of human MEK1 at 0.1 uM

[37] = molecular target: Angiopoietin-1 receptor (Homo sapiens) (UniProt Q02763); conditions: 0.1 uM
Description: Inhibition of human Tie2 at 0.1 uM

[38] = molecular target: Vascular endothelial growth factor receptor 3 (Homo sapiens) (UniProt P35916); experiment: Inhibition of human VEGFR3 at 0.1 uM
[39] = molecular target: Proto-oncogene tyrosine-protein kinase receptor Ret (Homo sapiens) (UniProt P07949); conditions: 0.1 uM
Description: Inhibition of human Ret at 0.1 uM

[40] = molecular target: Ephrin type-B receptor 4 (Homo sapiens) (UniProt P54760); conditions: 0.1 uM
Description: Inhibition of human EphB4 at 0.1 uM

[41] = molecular target: LIM domain kinase 1 (Homo sapiens) (UniProt P53667); conditions: 0.1 uM
Description: Inhibition of human LIMK1 at 0.1 uM

IC50 [1]: 360 nM | IC50 [2]: 680 nM
SMILES: COc1cc2nccc(Oc3ccc(NC(=O)CC(Nc4ccccc4)C(F)(F)F)cc3F)c2cc1OC (configuration not stated)

IC50 [1]: 10 nM
SMILES: Cn1cnc(-c2cc3nccc(Oc4ccc(NC(CC(=O)Nc5ccccc5)C(F)(F)F)cc4F)c3s2)c1 (configuration not stated)

inhibition [3]: inactive | inhibition [4]: inactive | inhibition [5]: inactive | IC50 [1]: 40 nM | inhibition [7]: inactive | IC50 [2]: > 5000 nM | inhibition [12]: Active | inhibition [13]: inactive | inhibition [14]: Active
SMILES: O=C(CC(Nc1ccc(Oc2cc(NC(=O)N3CCCC3)ncn2)c(F)c1)C(F)(F)F)Nc1ccccc1 (configuration not stated)
inhibition at 0.1 µM (HUVEC [6]): 95% | IC50 (HUVEC [8]): 40 nM | inhibition at 0.1 µM (HUVEC [9]): 97% | IC50 (HUVEC [10]): 6 nM | IC50 (HUVEC [11]): 10 nM

IC50 [1]: 30 nM | IC50 [2]: 910 nM
SMILES: COc1cc2nccc(Oc3ccc(NC(CC(=O)Nc4ccccc4)C(F)(F)F)cc3F)c2cc1OC (configuration not stated)

IC50 [1]: 860 nM | IC50 [2]: > 5000 nM
SMILES: COc1cc2ncnc(Oc3ccc(NC(=O)CC(Nc4ccccc4)C(F)(F)F)cc3F)c2cc1OC (configuration not stated)

IC50 [1]: 20 nM | IC50 [2]: 90 nM | IC50 [15]: 370 nM
SMILES: Cn1cnc(-c2cc3nccc(Oc4ccc(NC(CC(=O)Nc5ccc(F)cc5)C(F)(F)F)cc4F)c3s2)c1 (configuration not stated)

IC50 [1]: 1200 nM | IC50 [2]: > 5000 nM
SMILES: O=C(CC(Nc1ccc(F)cc1)C(F)(F)F)Nc1ccc(Oc2cc(NC(=O)N3CCCC3)ncn2)c(F)c1 (configuration not stated)

inhibition [16]: < 50% | inhibition [17]: 50% | inhibition [18]: 50% | inhibition [19]: < 50% | inhibition [20]: < 50% | inhibition [21]: < 50% | inhibition [22]: < 50% | IC50 [1]: 20 nM | inhibition [23]: < 50% | inhibition [24]: < 50% | inhibition [25]: 50% | inhibition [26]: < 50% | IC50 [2]: 840 nM | inhibition [27]: < 50% | inhibition [28]: 50% | inhibition [29]: < 50% | inhibition [30]: < 50% | inhibition [31]: < 50% | inhibition [32]: < 50% | inhibition [33]: > 95% | IC50 [15]: 1800 nM | inhibition [34]: < 50% | inhibition [35]: < 50% | inhibition [36]: < 50% | inhibition [37]: 50% | inhibition [38]: > 95% | inhibition [39]: < 50% | inhibition [40]: < 50% | inhibition [41]: < 50%
SMILES: COc1ccccc1NC(=O)CC(Nc1ccc(Oc2ccnc3cc(-c4cn(C)cn4)sc23)c(F)c1)C(F)(F)F (configuration not stated)

IC50 [1]: 20 nM | IC50 [2]: 180 nM | IC50 [15]: 880 nM
SMILES: Cn1cnc(-c2cc3nccc(Oc4ccc(NC(CC(=O)Nc5ccc(F)cc5)C(F)(F)F)cc4)c3s2)c1 (configuration not stated)

IC50 [1]: 210 nM
SMILES: Cn1cnc(-c2cc3nccc(Oc4ccc(NC(=O)CC(Nc5ccccc5)C(F)(F)F)cc4F)c3s2)c1 (configuration not stated)

IC50 [1]: 20 nM | IC50 [2]: 30 nM
SMILES: Cn1cnc(-c2cc3nccc(Oc4ccc(NC(=O)CC(=O)Nc5ccccc5)cc4F)c3s2)c1

IC50 [2]: 40 nM
SMILES: CN(C(=O)CC(=O)Nc1ccc(Oc2ccnc3cc(-c4cn(C)cn4)sc23)c(F)c1)c1ccccc1
